Results on 13 compounds are retold here after US9951065B2 (Gilead Sciences, Inc., priority 2015, dated 2018).

The target in this assay is T1, IDO1 (Homo sapiens, UniProt P14902).
T1 construct: HeLa cells were treated with a test compound in the presence of IFNγ, which induces IDO1 expression; host or cells: H1-HeLa cells, IDO1 induced with IFNγ
T1 sequence (P14902 whole entry): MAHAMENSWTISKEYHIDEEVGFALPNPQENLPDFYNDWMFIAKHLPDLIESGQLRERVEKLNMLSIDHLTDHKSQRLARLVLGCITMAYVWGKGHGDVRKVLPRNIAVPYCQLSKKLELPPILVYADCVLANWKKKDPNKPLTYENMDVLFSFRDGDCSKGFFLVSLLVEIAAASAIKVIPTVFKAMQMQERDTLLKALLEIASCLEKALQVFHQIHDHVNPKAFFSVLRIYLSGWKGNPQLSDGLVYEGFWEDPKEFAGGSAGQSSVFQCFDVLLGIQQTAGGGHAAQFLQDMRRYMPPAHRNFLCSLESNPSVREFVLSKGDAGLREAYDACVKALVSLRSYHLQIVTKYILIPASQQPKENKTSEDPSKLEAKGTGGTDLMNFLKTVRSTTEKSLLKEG
In words: Cell-based (HeLa) assay for measurement of IDO1 inhibition (kynurenine levels in supernatant after IFNγ induction). To be noted: HeLa cells, IFNγ-induced IDO1, kynurenine in supernatant, 48 hour incubation; geometric mean of a minimum of four determinations. A digest of the protocol:
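HeLa cells, 1,250 per well, treated with compound (0.5% DMSO final) plus IFNγ to induce IDO1, for 48 h. Supernatant kynurenine measured by TCA hydrolysis at 60 °C, then p-dimethylaminobenzaldehyde, absorbance 480 nm. EC50 from a four-parameter fit normalized to −/+IFNγ controls; geometric mean of at least four runs.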
For `CN1CCOC[C@H]1CNc1nc2nccc(/C(=N/O)Nc3ccc(F)c(Cl)c3)c2[nH]1` [Example 482, (R)-N-(3-chloro-4-fluorophenyl)-N′-hydroxy-2-(((4-methylmorpholin-3-yl)methyl)amino)-1H-imidazo[4,5-b]pyridine-7-carboximidamide], the midpoint of the response, the EC50, lay at 2.65 µM. For `CC1CN(C(C)CNc2nc3nccc(/C(=N/O)Nc4ccc(F)c(Cl)c4)c3[nH]2)CC(C)O1` (stereo not shown) [Example 483, N-(3-chloro-4-fluorophenyl)-2-((2-(2,6-dimethylmorpholino)propyl)amino)-N′-hydroxy-1H-imidazo[4,5-b]pyridine-7-carboximidamide], the EC50 (usually the concentration giving half of the maximal effect) turned out to be 0.668 µM.

Turning to `CC1CN(C(C)(C)CNc2nc3nccc(/C(=N/O)Nc4ccc(F)c(Cl)c4)c3[nH]2)CC(C)O1` (stereo not shown) [Example 484, N-(3-chloro-4-fluorophenyl)-2-((2-(2,6-dimethylmorpholino)-2-methylpropyl)amino)-N′-hydroxy-1H-imidazo[4,5-b]pyridine-7-carboximidamide], a half-maximal response (EC50) required 0.566 µM. The compound `CC1CN(CCNc2nc3nccc(/C(=N/O)Nc4ccc(F)c(Cl)c4)c3[nH]2)C(C)CO1` (stereo not shown) [Example 485, N-(3-chloro-4-fluorophenyl)-2-((2-(2,5-dimethylmorpholino)ethyl)amino)-N′-hydroxy-1H-imidazo[4,5-b]pyridine-7-carboximidamide] gave an EC50 of 0.639 µM. As for `CN(C)[C@@H]1CCC[C@H]1Nc1nc2c(F)c(F)cc(/C(=N/O)Nc3ccc(F)c(Cl)c3)c2[nH]1` [Example 486, N-(3-chloro-4-fluorophenyl)-2-(((1R,2R)-2-(dimethylamino)cyclopentyl)amino)-4,5-difluoro-N′-hydroxy-1H-benzo[d]imidazole-7-carboximidamide], the figure is 0.284 µM; as for `CN(C)CCSc1nc2nccc(/C(=N/O)Nc3ccc(F)c(Cl)c3)c2[nH]1` [Example 487, N-(3-chloro-4-fluorophenyl)-2-((2-(dimethylamino)ethyl)thio)-N′-hydroxy-1H-imidazo[4,5-b]pyridine-7-carboximidamide], 1.36 µM; as for `CN(C)CCSc1nc2c(F)c(F)cc(/C(=N/O)Nc3ccc(F)c(Cl)c3)c2[nH]1` [Example 488, N-(3-chloro-4-fluorophenyl)-2-((2-(dimethylamino)ethyl)thio)-4,5-difluoro-N′-hydroxy-1H-benzo[d]imidazole-7-carboximidamide], 3.01 µM. Take `OCC1CCCCN1CCNc1nc2c(F)c(F)cc(/C(=N/O)Nc3ccc(F)c(Cl)c3)c2[nH]1` (stereo not shown) [Example 489, N-(3-chloro-4-fluorophenyl)-4,5-difluoro-N′-hydroxy-2-((2-(2-(hydroxymethyl)piperidin-1-yl)ethyl)amino)-1H-benzo[d]imidazole-7-carboximidamide]: the EC50 came to 0.289 µM. `OCC1CCCN1CCNc1nc2c(F)c(F)cc(/C(=N/O)Nc3ccc(F)c(Cl)c3)c2[nH]1` (stereo not shown) [Example 490, N-(3-chloro-4-fluorophenyl)-4,5-difluoro-N′-hydroxy-2-((2-(2-(hydroxymethyl)pyrrolidin-1-yl)ethyl)amino)-1H-benzo[d]imidazole-7-carboximidamide] had an EC50 of 0.186 µM.

`O/N=C(\Nc1ccc(F)c(Cl)c1)c1ccnc2nc(NCCN3CCC(F)(F)C3)[nH]c12` [Example 491, N-(3-chloro-4-fluorophenyl)-2-((2-(3,3-difluoropyrrolidin-1-yl)ethyl)amino)-N′-hydroxy-1H-imidazo[4,5-b]pyridine-7-carboximidamide] displayed an EC50 of 0.917 µM.

Turning to `NS(=O)(=O)CCNc1nc2nccc(/C(=N/O)Nc3ccc(F)c(Cl)c3)c2[nH]1` [Example 492, N-(3-chloro-4-fluorophenyl)-N′-hydroxy-2-((2-sulfamoylethyl)amino)-1H-imidazo[4,5-b]pyridine-7-carboximidamide], a half-maximal response (EC50) required 5.66 µM. `CS(=O)(=O)CCNc1nc2nccc(/C(=N/O)Nc3ccc(F)c(Cl)c3)c2[nH]1` [Example 493, N-(3-chloro-4-fluorophenyl)-N′-hydroxy-2-((2-(methylsulfonyl)ethyl)amino)-1H-imidazo[4,5-b]pyridine-7-carboximidamide] displayed an EC50 of 7.21 µM.

Take `O/N=C(\Nc1ccc(F)c(Cl)c1)c1ccnc2nc(NCc3ncccn3)[nH]c12` [Example 494, N-(3-chloro-4-fluorophenyl)-N′-hydroxy-2-((pyrimidin-2-ylmethyl)amino)-1H-imidazo[4,5-b]pyridine-7-carboximidamide]: the EC50 is > 10 µM.
